{"source": "patent US20240245685A1", "about": "“PHOSPHODIESTERASE-5 INHIBITOR COMBINATIONS, METHODS OF MAKING, AND METHODS OF USE THEREOF” (VK Research Associates Inc, priority 2020, published 2024)", "origin": "cited, not measured here", "key": {"[1]": {"conditions": "for median time to maximum concentration (t max): oral administration"}, "[2]": {"assay": "not given", "remark": "listed apart in the source"}, "[3]": {"conditions": "oral tadalafil therapy"}}, "note": "Read-outs that look alike come from different tables or passages of the source.", "data": [{"smiles": "COc1ccc(CN=c2[nH]c(N3CCC[C@H]3CO)ncc2C(=O)NCc2ncccn2)cc1Cl", "note": "[avanafil]", "values": [{"measurement": "absorption profile when administered with a high-fat meal", "setting": "[1]", "value": "not found"}]}, {"smiles": "CCCc1nn(C)c2c(=O)[nH]c(-c3cc(S(=O)(=O)N4CCN(C)CC4)ccc3OCC)nc12", "note": "[sildenafil]", "values": [{"measurement": "median time to maximum concentration (t max)", "setting": "[1]", "value": 1, "unit": "h"}]}, {"smiles": "CN1CC(=O)N2[C@H](c3ccc4c(c3)OCO4)c3[nH]c4ccccc4c3C[C@@H]2C1=O", "note": "[tadalafil]", "values": [{"measurement": "Dyspepsia incidence", "setting": "tadalafil 5 mg", "value": 4, "unit": "%"}, {"measurement": "Headache incidence", "setting": "tadalafil 5 mg", "value": 11, "unit": "%"}, {"measurement": "Dyspepsia incidence", "setting": "tadalafil 10 mg", "value": 8, "unit": "%"}, {"measurement": "Headache incidence", "setting": "tadalafil 10 mg", "value": 11, "unit": "%"}, {"measurement": "Dyspepsia incidence", "setting": "tadalafil 20 mg", "value": 10, "unit": "%"}, {"measurement": "Headache incidence", "setting": "tadalafil 20 mg", "value": 15, "unit": "%"}, {"measurement": "absorption profile when administered with a high-fat meal", "setting": "[1]", "value": "not found"}, {"measurement": "Dyspepsia Duration", "setting": "[2]; maximum doses", "value": 15.5, "unit": "h"}, {"measurement": "Dyspepsia Mean Duration", "setting": "[2]; maximum doses", "value": 11.2, "unit": "h"}, {"measurement": "Headache Duration", "setting": "[2]; maximum doses", "value": 24.3, "unit": "h"}, {"measurement": "Headache Mean Duration", "setting": "[2]; maximum doses", "value": 17.0, "unit": "h"}, {"measurement": "duration of side effects versus sildenafil", "setting": "[2]; patients taking tadalafil versus sildenafil", "value": "more prolonged"}, {"measurement": "frequency of headache and dyspepsia versus sildenafil", "setting": "[2]; tadalafil versus sildenafil", "value": "more common"}, {"measurement": "duration of delayed onset side effects, e.g. gastritis and back pain", "setting": "[3]", "value": "up to 3 hours"}]}, {"smiles": "CCCc1nc(C)c2c(=O)[nH]c(-c3cc(S(=O)(=O)N4CCN(CC)CC4)ccc3OCC)nn12", "note": "[vardenafil]", "values": [{"measurement": "median time to maximum concentration (t max)", "setting": "[1]", "value": 1, "unit": "h"}]}]}
